For one test, the system named is spermatozoids. Briefly: Spermicidal action, vitality by eosine-nigrosine, 100 spermatozoids examined. In kind it is cell-based, human (healthy volunteers). Details: key: living (colourless) cells counted among 100 spermatozoids examined. As to the method:
The various samples of sperm (one drop of sperm per sample) are obtained from healthy volunteers.
One drop of sperm is treated by eosine-nigrosine. A smear is then prepared and 100 spermatozoids examined with a microscope. The dead cells are coloured red, either totally or partially. The living cells are colourless.
The substances studied were Bardac® and chlorohexidine digluconate, tested alone and in association in accordance with the invention. The various stages of the procedure are set out in Tables XV to XVII.
The maximum contact time of the various substances and of the sperm was confined to 3 minutes in order to guarantee the effectiveness of the method under the conditions of use. The concentration of the active solutions in the sperm was limited to 10% in order to reduce the risks of toxicity of the products in respect of the mucosa.

The subject of the next test is AgHBs. Briefly: In vitro degradation of the antigen of hepatitis B virus (AgHBs), virocide + human serum of a hepatitis B patient. In kind it is biochemical. The following applies: Bardac 0.2%. From the text:
Action on In Vitro Degradation of the Antigen of Hepatitis B Virus (AgHBs) of the Hepatitis B Virus: Virocide+Human Serum Taken from a Patient with Hepatitis B ( 1/1000th)

Test [1] has as its system herpes virus Hominis type 1, strain Bey (HSV1). Briefly: Immediate virocidal action, zone-forming units on vero cells. The following applies: day 4, three culture dishes. Type of test: cell-based.

`CCCCCCCCCC[N+](C)(C)CCCCCCCCCC.[Cl-]` [Bardac ®, didecyl dimethyl ammonium chloride]: the “vitality (living spermatozoids)” value with spermatozoids (Bardac solution 0.4%, contact 1 min, 5% in the sperm) is listed as 10.7 ± 7.6; in the test on spermatozoids (Bardac solution 0.4%, contact 1 min, 10% in the sperm) it was 5 ± 6.4; in the test on spermatozoids (Bardac solution 0.4%, contact 3 min, 5% in the sperm), 0.8 ± 1.2; in the test with spermatozoids (Bardac solution 0.4%, contact 3 min, 10% in the sperm), 0.8 ± 1; with spermatozoids (Bardac solution 0.6%, contact 1 min, 5% in the sperm) it was 10.5 ± 9.7; in the test with spermatozoids (Bardac solution 0.6%, contact 1 min, 10% in the sperm), 9.2 ± 12.9. The “vitality (living spermatozoids)” value with spermatozoids (Bardac solution 0.6%, contact 3 min, 5% in the sperm) was determined as 2.2 ± 4.5; with spermatozoids (Bardac solution 0.6%, contact 3 min, 10% in the sperm), 0.4 ± 0.9; in the test on spermatozoids (Bardac solution 0.8%, contact 1 min, 5% in the sperm), 9.7 ± 10.2; with spermatozoids (Bardac solution 0.8%, contact 1 min, 10% in the sperm), 1.8 ± 2.5; in the test on spermatozoids (Bardac solution 0.8%, contact 3 min, 5% in the sperm) it was 0; with spermatozoids (Bardac solution 0.8%, contact 3 min, 10% in the sperm) it was 0. The “vitality (living spermatozoids)” value with spermatozoids (Bardac solution 1%, contact 1 min, 5% in the sperm) is recorded as 0; in the test on spermatozoids (Bardac solution 1%, contact 1 min, 10% in the sperm), 0; in the test on spermatozoids (Bardac solution 1%, contact 3 min, 5% in the sperm), 0; in the test with spermatozoids (Bardac solution 1%, contact 3 min, 10% in the sperm), 0. The “Residual AgHBs (ratio)” value in the test on AgHBs is given as 1.35. In addition, the “Number of zone-forming units per milliliter of virus diluted to 10^−4” value in test [1] (Bardac 0.02%) is 30/125/45; in test [1] (Bardac, concentration not given, second series (control virus at 10^−6)) it was 26/17/20.
In the case of `[H]/N=C(\N/C(=N/[H])NCCCCCCNC(=N)NC(=N)Nc1ccc(Cl)cc1)Nc1ccc(Cl)cc1` [Chlorhexidine, chlorohexidine digluconate, reference compound], the “vitality (living spermatozoids)” value in the test on spermatozoids (Chlorohexidine digluconate solution 0.5%, contact 1 min, 5% in the sperm) worked out at 77 ± 10.8; in the test with spermatozoids (Chlorohexidine digluconate solution 0.5%, contact 1 min, 10% in the sperm), 77.2 ± 5.6; in the test on spermatozoids (Chlorohexidine digluconate solution 0.5%, contact 3 min, 5% in the sperm) it was 78 ± 5.7; with spermatozoids (Chlorohexidine digluconate solution 0.5%, contact 3 min, 10% in the sperm) it was 75.5 ± 4.8.

These data come from patent publication US7381521B2, “Anti-pathogenic composition useful in blood preservation” (Altachem Pharma Ltd., priority 2001, dated 2008).
